Experimental data taken from US9265253B2, “Use of macrocyclic picolinamides as fungicides” (DOW AGROSCIENCES LLC, priority 2013, dated 2016).
Where two headings read alike, the source gives them in different places.

How the values were obtained:
[1] = test system: Puccinia triticina; Synonym: Puccinia recondite f. Sp. Tritici; experiment: Wheat Brown Rust (PUCCRT) disease control; format: in vivo; conditions: Puccinia triticina, topical; for pest or weed control at 121.5 g/ha: rate 121.5 g/H; for pest or weed control at 100 ppm: rate 100 ppm
Procedure: (§1) Technical grades of materials were dissolved in acetone, which were then mixed with nine volumes of water containing 110 ppm Triton X-100. The fungicide solutions were applied onto wheat seedlings using an automated booth sprayer to run-off. All sprayed plants were allowed to air dry prior to further handling. All fungicides were evaluated using the aforementioned method for their activity vs. all target diseases. Wheat leaf blotch and brown rust activity were also evaluated using track spray applications, in which case the fungicides were formulated as EC formulations, containing 0.1% Trycol 5941 in the spray solutions. Wheat plants (variety Yuma) were grown from seed in a greenhouse in 50% mineral soil/50% soil-less Metro mix until the first leaf was fully emerged, with 7-10 seedlings per pot. These plants were inoculated with an aqueous spore suspension of Septoria tritici either prior to or after fungicide treatments. After inoculation the plants were kept in 100% relative humidity (one day in a dark dew chamber followed by two to three days in a lighted dew chamber at 20° C.) to permit spores to germinate and infect the leaf. The plants were then transferred to a greenhouse set at 20° C. for disease to develop. When disease symptoms were fully expressed on the 1st leaves of untreated plants, infection levels were assessed on a scale of 0 to 100 percent disease severity. Percent disease control was calculated using the ratio of disease severity on treated plants relative to untreated plants. Wheat plants (variety Yuma) were grown from seed in a greenhouse in 50% mineral soil/50% soil-less Metro mix until the first leaf was fully emerged, with 7-10 seedlings per pot. These plants were inoculated with an aqueous spore suspension of Puccinia triticina either prior to or after fungicide treatments. After inoculation the plants were kept in a dark dew room at 22° C. with 100% relative humidity overnight to permit spores to germinate and infect the leaf. The plants were then transferred to a greenhouse set at 24° C. for disease to develop. Fungicide formulation, application and disease assessment followed the procedures as described in the Example A.

[2] = test system: Mycosphaerella graminicola; Anamorph: Septoria tritici; experiment: Leaf Blotch of Wheat (SEPTTR) disease control; format: in vivo; conditions: for pest or weed control at 100 ppm / pest or weed control at 121.5 g/ha: Zymoseptoria tritici; for pest or weed control at 121.5 g/ha: rate 121.5 g/H
Procedure: as §1, with “plants.” for “plants. Wheat plants (variety Yuma) were grown from seed in a greenhouse in 50% mineral soil/50% soil-less Metro mix until the first leaf was fully emerged, with 7-10 seedlings per pot. These plants were inoculated with an aqueous spore suspension of Puccinia triticina either prior to or after fungicide treatments. After inoculation the plants were kept in a dark dew room at 22° C. with 100% relative humidity overnight to permit spores to germinate and infect the leaf. The plants were then transferred to a greenhouse set at 24° C. for disease to develop. Fungicide formulation, application and disease assessment followed the procedures as described in the Example A.”

[3] = 24 h, 1 Day Protectant, read-out: PUCCRT 1 DP disease control
[4] = 72 h, 3 Day Curative, read-out: PUCCRT 3 DC disease control
[5] = 24 h, 1 Day Protectant, rate 100 ppm, read-out: SEPTTR 1 DP disease control
[6] = 24 h, 1 Day Protectant, read-out: SEPTTR 1 DP disease control
[7] = 72 h, 3 Day Curative, rate 100 ppm, read-out: SEPTTR 3 DC disease control
[8] = 72 h, 3 Day Curative, read-out: SEPTTR 3 DC disease control

SMILES	pest or weed control at 121.5 g/ha [1, 3] [%]	pest or weed control at 100 ppm [1, 4] [%]	pest or weed control at 121.5 g/ha [1, 4] [%]	pest or weed control at 100 ppm [2, 5] [%]	pest or weed control at 121.5 g/ha [2, 6] [%]	pest or weed control at 100 ppm [2, 7] [%]	pest or weed control at 121.5 g/ha [2, 8] [%]	pest or weed control at 100 ppm [1, 3] [%]	SEPTTR 3 DC disease control ([2]; 3 Day Curative, rate 100 ppm)
COc1ccnc(C(=O)N[C@H]2CCC[C@H](Cc3ccc(F)cc3)[C@@H](OC(=O)C(C)C)[C@H](C)OC2=O)c1OCOC(C)=O [Compound F105]	80 to 100	80 to 100	80 to 100	80 to 100	80 to 100	80 to 100	80 to 100		
COc1ccnc(C(=O)N[C@H]2CCC[C@H](CCC(C)C)[C@@H](OC)[C@H](C)OC2=O)c1OC(C)=O [Compound F66]	0 to 80	80 to 100	0 to 80	80 to 100	80 to 100	80 to 100	0 to 80	80 to 100	
COc1ccnc(C(=O)N[C@H]2CCC[C@H](Cc3ccc(F)cc3F)[C@@H](OCCCc3ccccc3)[C@H](C)OC2=O)c1O [Compound F56]		0 to 80		80 to 100		0 to 80		80 to 100	
COc1ccnc(C(=O)N[C@H]2CCC[C@H](CCOc3ccccc3)[C@@H](Oc3ccccc3)[C@H](C)OC2=O)c1O [Compound F44]		80 to 100		80 to 100		80 to 100		80 to 100	
COc1ccnc(C(=O)N[C@H]2CCC[C@H](CC3CCCCC3)[C@@H](OCC3CC3)[C@H](C)OC2=O)c1O [Compound F9, N-((3S,7R,8R,9S)-7-(cyclohexylmethyl)-8-(cyclopropylmethoxy)-9-methyl-2-oxooxonan-3-yl)-3-hydroxy-4-methoxypicolinamide]		80 to 100		80 to 100		80 to 100		80 to 100	
COc1ccnc(C(=O)N[C@H]2CCC[C@H](CCOc3ccccc3)[C@@H](OCC3CC3)[C@H](C)OC2=O)c1O [Compound F57]		80 to 100		80 to 100		0 to 80		80 to 100	
COc1ccnc(C(=O)N[C@H]2CCC[C@H](CCOCC3CC3)[C@@H](OCC3CC3)[C@H](C)OC2=O)c1OC(C)=O [Compound F83]	80 to 100	80 to 100	80 to 100	80 to 100	0 to 80		0 to 80	80 to 100	
CCOCC(=O)OCOc1c(OC)ccnc1C(=O)N[C@H]1CCC[C@H](CCC(C)C)[C@@H](OC)[C@H](C)OC1=O [Compound F163]	0 to 80	0 to 80	0 to 80	80 to 100	80 to 100	80 to 100	0 to 80	80 to 100	
COc1ccnc(C(=O)N[C@H]2CCC[C@H](C)[C@@H](OCc3ccccc3)[C@H](C)OC2=O)c1O [Compound F39]		80 to 100		80 to 100		0 to 80		80 to 100	
COc1ccnc(C(=O)N[C@H]2CCC[C@H](Cc3ccc(C)cc3)[C@@H](OCCCC(F)(F)F)[C@H](C)OC2=O)c1O [Compound F10]	80 to 100	80 to 100	0 to 80	80 to 100	80 to 100		80 to 100	80 to 100	A (80-100)
